Source: ChEMBL document CHEMBL3046289, “Synthesis and in vitro antimicrobial activity of some newer quinazolinonesulfonamide linked hybrid heterocyclic entities derived from glycine” (2013)
≈ marks a conversion by molar mass, not a printed value.

Legend:
Format in all cases: functional
[1] = system: Klebsiella pneumoniae; assay: Antibacterial activity against Klebsiella pneumoniae MTCC 139 assessed as growth inhibition after 24 hr by broth microdilution method; conditions: MTCC 139, 24 h
[2] = system: Staphylococcus aureus; assay: Antibacterial activity against Staphylococcus aureus MTCC 2940 assessed as growth inhibition after 24 hr by broth microdilution method; conditions: MTCC 2940, 24 h
[3] = system: Candida albicans; assay: Antifungal activity against Candida albicans MTCC 227 assessed as growth inhibition after 48 hr by broth microdilution method; conditions: MTCC 227, 48 h
[4] = system: Pseudomonas aeruginosa; assay: Antibacterial activity against Pseudomonas aeruginosa MTCC 1688 assessed as growth inhibition after 24 hr by broth microdilution method; conditions: MTCC 1688, 24 h
[5] = system: Bacillus cereus; assay: Antibacterial activity against Bacillus cereus MTCC 1305 assessed as growth inhibition after 24 hr by broth microdilution method; conditions: MTCC 1305, 24 h
[6] = system: Escherichia coli; assay: Antibacterial activity against Escherichia coli MTCC 443 assessed as growth inhibition after 24 hr by broth microdilution method; conditions: MTCC 443, 24 h
[7] = system: Aspergillus niger; assay: Antifungal activity against Aspergillus niger MTCC 282 assessed as growth inhibition after 48 hr by broth microdilution method; conditions: MTCC 282, 48 h

MIC [1] [µg/mL]	MIC [2] [µg/mL]	MIC [3] [µg/mL]	MIC [4] [µg/mL]	MIC [5] [µg/mL]	MIC [6] [µg/mL]	MIC [7] [µg/mL]	Compound
95 (≈ 204 µM)	85 (≈ 182 µM)	85 (≈ 182 µM)	95 (≈ 204 µM)	105 (≈ 225 µM)	80 (≈ 171 µM)	70 (≈ 150 µM)	CC(=O)Nc1ccc(S(=O)(=O)NCc2nc3ccccc3c(=O)n2-c2ccccc2F)cc1
95 (≈ 204 µM)	80 (≈ 171 µM)	80 (≈ 171 µM)	85 (≈ 182 µM)	95 (≈ 204 µM)	75 (≈ 161 µM)	55 (≈ 118 µM)	CC(=O)Nc1ccc(S(=O)(=O)NCc2nc3ccccc3c(=O)n2-c2ccc(F)cc2)cc1
115 (≈ 273 µM)	100 (≈ 237 µM)	115 (≈ 273 µM)	95 (≈ 225 µM)	105 (≈ 249 µM)	90 (≈ 214 µM)	105 (≈ 249 µM)	Nc1ccc(S(=O)(=O)NCc2nc3ccccc3c(=O)n2Nc2ccccc2)cc1
145 (≈ 313 µM)	100 (≈ 216 µM)	120 (≈ 259 µM)	125 (≈ 270 µM)	130 (≈ 280 µM)	115 (≈ 248 µM)	105 (≈ 227 µM)	CC(=O)Nc1ccc(S(=O)(=O)NCc2nc3ccccc3c(=O)n2Nc2ccccc2)cc1
110 (≈ 230 µM)	85 (≈ 178 µM)	70 (≈ 146 µM)	100 (≈ 209 µM)	90 (≈ 188 µM)	75 (≈ 157 µM)	65 (≈ 136 µM)	COc1cccc(-n2c(CNS(=O)(=O)c3ccc(NC(C)=O)cc3)nc3ccccc3c2=O)c1
100 (≈ 209 µM)	55 (≈ 115 µM)	50 (≈ 104 µM)	90 (≈ 188 µM)	65 (≈ 136 µM)	50 (≈ 104 µM)	40 (≈ 83.6 µM)	COc1ccc(-n2c(CNS(=O)(=O)c3ccc(NC(C)=O)cc3)nc3ccccc3c2=O)cc1
95 (≈ 210 µM)	75 (≈ 166 µM)	65 (≈ 144 µM)	75 (≈ 166 µM)	85 (≈ 188 µM)	70 (≈ 155 µM)	55 (≈ 122 µM)	Nc1ccc(S(=O)(=O)NCc2nc3ccccc3c(=O)n2-c2ccccc2[N+](=O)[O-])cc1
90 (≈ 199 µM)	70 (≈ 155 µM)	60 (≈ 133 µM)	65 (≈ 144 µM)	85 (≈ 188 µM)	60 (≈ 133 µM)	50 (≈ 111 µM)	Nc1ccc(S(=O)(=O)NCc2nc3ccccc3c(=O)n2-c2cccc([N+](=O)[O-])c2)cc1
75 (≈ 166 µM)	65 (≈ 144 µM)	55 (≈ 122 µM)	60 (≈ 133 µM)	75 (≈ 166 µM)	55 (≈ 122 µM)	45 (≈ 99.7 µM)	Nc1ccc(S(=O)(=O)NCc2nc3ccccc3c(=O)n2-c2ccc([N+](=O)[O-])cc2)cc1
115 (≈ 233 µM)	85 (≈ 172 µM)	80 (≈ 162 µM)	100 (≈ 203 µM)	90 (≈ 182 µM)	75 (≈ 152 µM)	65 (≈ 132 µM)	CC(=O)Nc1ccc(S(=O)(=O)NCc2nc3ccccc3c(=O)n2-c2ccccc2[N+](=O)[O-])cc1
110 (≈ 223 µM)	80 (≈ 162 µM)	75 (≈ 152 µM)	95 (≈ 193 µM)	80 (≈ 162 µM)	70 (≈ 142 µM)	60 (≈ 122 µM)	CC(=O)Nc1ccc(S(=O)(=O)NCc2nc3ccccc3c(=O)n2-c2cccc([N+](=O)[O-])c2)cc1
105 (≈ 213 µM)	80 (≈ 162 µM)	70 (≈ 142 µM)	90 (≈ 182 µM)	85 (≈ 172 µM)	70 (≈ 142 µM)	55 (≈ 111 µM)	CC(=O)Nc1ccc(S(=O)(=O)NCc2nc3ccccc3c(=O)n2-c2ccc([N+](=O)[O-])cc2)cc1
100 (≈ 207 µM)	70 (≈ 145 µM)	75 (≈ 155 µM)	75 (≈ 155 µM)	100 (≈ 207 µM)	70 (≈ 145 µM)	60 (≈ 124 µM)	CC(=O)Nc1ccc(S(=O)(=O)NCc2nc3ccccc3c(=O)n2-c2ccccc2Cl)cc1
105 (≈ 217 µM)	65 (≈ 135 µM)	70 (≈ 145 µM)	70 (≈ 145 µM)	95 (≈ 197 µM)	60 (≈ 124 µM)	55 (≈ 114 µM)	CC(=O)Nc1ccc(S(=O)(=O)NCc2nc3ccccc3c(=O)n2-c2cccc(Cl)c2)cc1
85 (≈ 176 µM)	60 (≈ 124 µM)	65 (≈ 135 µM)	65 (≈ 135 µM)	90 (≈ 186 µM)	60 (≈ 124 µM)	55 (≈ 114 µM)	CC(=O)Nc1ccc(S(=O)(=O)NCc2nc3ccccc3c(=O)n2-c2ccc(Cl)cc2)cc1
95 (≈ 180 µM)	70 (≈ 133 µM)	70 (≈ 133 µM)	75 (≈ 142 µM)	95 (≈ 180 µM)	65 (≈ 123 µM)	60 (≈ 114 µM)	CC(=O)Nc1ccc(S(=O)(=O)NCc2nc3ccccc3c(=O)n2-c2ccccc2Br)cc1
90 (≈ 171 µM)	65 (≈ 123 µM)	70 (≈ 133 µM)	70 (≈ 133 µM)	90 (≈ 171 µM)	70 (≈ 133 µM)	55 (≈ 104 µM)	CC(=O)Nc1ccc(S(=O)(=O)NCc2nc3ccccc3c(=O)n2-c2cccc(Br)c2)cc1
90 (≈ 171 µM)	60 (≈ 114 µM)	60 (≈ 114 µM)	65 (≈ 123 µM)	95 (≈ 180 µM)	65 (≈ 123 µM)	50 (≈ 94.8 µM)	CC(=O)Nc1ccc(S(=O)(=O)NCc2nc3ccccc3c(=O)n2-c2ccc(Br)cc2)cc1
125 (≈ 270 µM)	100 (≈ 216 µM)	90 (≈ 195 µM)	120 (≈ 259 µM)	115 (≈ 249 µM)	90 (≈ 195 µM)	80 (≈ 173 µM)	CC(=O)Nc1ccc(S(=O)(=O)NCc2nc3ccccc3c(=O)n2-c2ccccc2C)cc1
120 (≈ 259 µM)	95 (≈ 205 µM)	80 (≈ 173 µM)	115 (≈ 249 µM)	105 (≈ 227 µM)	80 (≈ 173 µM)	75 (≈ 162 µM)	CC(=O)Nc1ccc(S(=O)(=O)NCc2nc3ccccc3c(=O)n2-c2cccc(C)c2)cc1
115 (≈ 249 µM)	95 (≈ 205 µM)	85 (≈ 184 µM)	105 (≈ 227 µM)	105 (≈ 227 µM)	85 (≈ 184 µM)	70 (≈ 151 µM)	CC(=O)Nc1ccc(S(=O)(=O)NCc2nc3ccccc3c(=O)n2-c2ccc(C)cc2)cc1
95 (≈ 218 µM)	85 (≈ 195 µM)	65 (≈ 149 µM)	80 (≈ 183 µM)	80 (≈ 183 µM)	65 (≈ 149 µM)	55 (≈ 126 µM)	COc1ccccc1-n1c(CNS(=O)(=O)c2ccc(N)cc2)nc2ccccc2c1=O
90 (≈ 206 µM)	80 (≈ 183 µM)	50 (≈ 115 µM)	85 (≈ 195 µM)	75 (≈ 172 µM)	60 (≈ 137 µM)	50 (≈ 115 µM)	COc1cccc(-n2c(CNS(=O)(=O)c3ccc(N)cc3)nc3ccccc3c2=O)c1
75 (≈ 172 µM)	60 (≈ 137 µM)	55 (≈ 126 µM)	75 (≈ 172 µM)	70 (≈ 160 µM)	50 (≈ 115 µM)	45 (≈ 103 µM)	COc1ccc(-n2c(CNS(=O)(=O)c3ccc(N)cc3)nc3ccccc3c2=O)cc1
105 (≈ 219 µM)	90 (≈ 188 µM)	80 (≈ 167 µM)	110 (≈ 230 µM)	95 (≈ 199 µM)	80 (≈ 167 µM)	70 (≈ 146 µM)	COc1ccccc1-n1c(CNS(=O)(=O)c2ccc(NC(C)=O)cc2)nc2ccccc2c1=O

Compound	MIC [1] [µg/mL]	MIC [2] [µg/mL]	MIC [3] [µg/mL]	MIC [4] [µg/mL]	MIC [5] [µg/mL]	MIC [6] [µg/mL]	MIC [7] [µg/mL]
Nc1ccc(S(=O)(=O)NCc2nc3ccccc3c(=O)n2-c2ccccc2Br)cc1	85 (≈ 175 µM)	55 (≈ 113 µM)	55 (≈ 113 µM)	65 (≈ 134 µM)	70 (≈ 144 µM)	55 (≈ 113 µM)	45 (≈ 92.7 µM)
Nc1ccc(S(=O)(=O)NCc2nc3ccccc3c(=O)n2-c2ccccc2F)cc1	95 (≈ 224 µM)	65 (≈ 153 µM)	65 (≈ 153 µM)	70 (≈ 165 µM)	90 (≈ 212 µM)	65 (≈ 153 µM)	55 (≈ 130 µM)
Nc1ccc(S(=O)(=O)NCc2nc3ccccc3c(=O)n2-c2ccc(F)cc2)cc1	85 (≈ 200 µM)	60 (≈ 141 µM)	60 (≈ 141 µM)	65 (≈ 153 µM)	55 (≈ 130 µM)	55 (≈ 130 µM)	45 (≈ 106 µM)
Nc1ccc(S(=O)(=O)NCc2nc3ccccc3c(=O)n2-c2ccccc2Cl)cc1	90 (≈ 204 µM)	60 (≈ 136 µM)	60 (≈ 136 µM)	60 (≈ 136 µM)	90 (≈ 204 µM)	55 (≈ 125 µM)	50 (≈ 113 µM)
Nc1ccc(S(=O)(=O)NCc2nc3ccccc3c(=O)n2-c2cccc(Cl)c2)cc1	80 (≈ 181 µM)	55 (≈ 125 µM)	55 (≈ 125 µM)	55 (≈ 125 µM)	65 (≈ 147 µM)	50 (≈ 113 µM)	50 (≈ 113 µM)
Nc1ccc(S(=O)(=O)NCc2nc3ccccc3c(=O)n2-c2ccc(Cl)cc2)cc1	75 (≈ 170 µM)	45 (≈ 102 µM)	45 (≈ 102 µM)	50 (≈ 113 µM)	55 (≈ 125 µM)	45 (≈ 102 µM)	40 (≈ 90.7 µM)
Nc1ccc(S(=O)(=O)NCc2nc3ccccc3c(=O)n2-c2cccc(Br)c2)cc1	75 (≈ 155 µM)	50 (≈ 103 µM)	45 (≈ 92.7 µM)	55 (≈ 113 µM)	60 (≈ 124 µM)	50 (≈ 103 µM)	40 (≈ 82.4 µM)
Nc1ccc(S(=O)(=O)NCc2nc3ccccc3c(=O)n2-c2ccc(Br)cc2)cc1	75 (≈ 155 µM)	55 (≈ 113 µM)	55 (≈ 113 µM)	50 (≈ 103 µM)	65 (≈ 134 µM)	50 (≈ 103 µM)	45 (≈ 92.7 µM)
Cc1ccccc1-n1c(CNS(=O)(=O)c2ccc(N)cc2)nc2ccccc2c1=O	100 (≈ 238 µM)	90 (≈ 214 µM)	100 (≈ 238 µM)	80 (≈ 190 µM)	105 (≈ 250 µM)	70 (≈ 166 µM)	90 (≈ 214 µM)
Cc1cccc(-n2c(CNS(=O)(=O)c3ccc(N)cc3)nc3ccccc3c2=O)c1	115 (≈ 273 µM)	85 (≈ 202 µM)	95 (≈ 226 µM)	85 (≈ 202 µM)	100 (≈ 238 µM)	65 (≈ 155 µM)	85 (≈ 202 µM)
Cc1ccc(-n2c(CNS(=O)(=O)c3ccc(N)cc3)nc3ccccc3c2=O)cc1	90 (≈ 214 µM)	80 (≈ 190 µM)	80 (≈ 190 µM)	70 (≈ 166 µM)	95 (≈ 226 µM)	65 (≈ 155 µM)	75 (≈ 178 µM)
CC1(C)S[C@@H]2[C@H](NC(=O)[C@H](N)c3ccccc3)C(=O)N2[C@H]1C(=O)O [AMPICILLIN]	85 (≈ 243 µM)	45 (≈ 129 µM)	–	55 (≈ 157 µM)	60 (≈ 172 µM)	50 (≈ 143 µM)	–
CC(=O)N1CCN(c2ccc(OCC3COC(Cn4ccnc4)(c4ccc(Cl)cc4Cl)O3)cc2)CC1 (centres undefined) [KETOCONAZOLE]	–	–	50 (≈ 94.1 µM)	–	–	–	40 (≈ 75.3 µM)
